We go through one substance from patent US20230201341A1, “TLR3 AND TLR9 AGONISTS AS VACCINE ADJUVANTS FOR ANTI-CANCER DNA VACCINES” (WISCONSIN ALUMNI RESEARCH FOUNDATION, priority 2021, published 2023).

The experiment relates to TRAMP-C1 tumor cells. Kind of experiment: Tumor study with TRAMP-C1 tumors: DNA vaccine pTVG-AR co-delivered with TLR agonists. Format: in vivo, C57BL/6 mice. The settings on record: administered with a DNA cancer vaccine in mice; compared with vaccine alone. The source says:
FIG. 6. Combinations of TLR agonists improve the anti-tumor efficacy of a DNA vaccine in a prostate cancer tumor model. C57BL/6 mice were implanted subcutaneously with TRAMP-C1 tumor cells. Mice were immunized intradermally weekly with control vector (pTVG4) or DNA encoding AR ligand-binding domain (pTVG-AR) and delivered alone or co-delivered with TLR1/2, TLR3 and/or TLR9 agonists. (A) shown are the growth curves for each group (n=6 animals per group). (B) Survival plots using the time to death or when tumors reached 2 cm3 in size, whichever occurred first. (C) Tumors obtained at necropsy were evaluated for the percentage of infiltrating CD45^+ cells, CD8^+ T cells among CD45^+ cells, and Treg cells (CD25^+Foxp3^+) among CD4^+CD45^+ cells. (D) Tumor-infiltrating CD8+ T cells were evaluated for 4-1BB and PD-1 expression by flow cytometry.
FIG. 11. Combinations of TLR agonists improve the anti-tumor efficacy of a DNA vaccine in a prostate cancer tumor model. […]
Six- to ten-week-old male C57BL/6 mice were inoculated with 1×10^6 TRAMP-C1 cells, administered subcutaneously with matrigel. […] TLR agonist(s) were co-administered with the vaccine intradermally, and tumor volumes were measured as described above. Obtained tumors were digested in collagenase and DNAse I for 1 hour at 37° C., passed through a […] screen, and analyzed by flow cytometry.

For ODN 1826, the tumor growth suppression result is “improved the tumor growth suppression”.
